Assays:
[1] = Inhibition of CDK1/cyclinB; set-up: species or system Homo sapiens
[2] = molecular target: Serine/threonine-protein kinase AKT (Homo sapiens, UniProt P31751+Q9Y243+P31749); experiment: Inhibition of AKT; type: protein assay
[3] = molecular target: Protein kinase C alpha type (Homo sapiens, UniProt P17252); experiment: Inhibition of PKCa
[4] = molecular target: Protein kinase C delta type (Homo sapiens, UniProt Q05655); experiment: Inhibition of PKCd
[5] = molecular target: Mitogen-activated protein kinase 1 (Homo sapiens, UniProt P28482); experiment: Inhibition of ERK
Chain of Mitogen-activated protein kinase 1 (P28482 whole entry): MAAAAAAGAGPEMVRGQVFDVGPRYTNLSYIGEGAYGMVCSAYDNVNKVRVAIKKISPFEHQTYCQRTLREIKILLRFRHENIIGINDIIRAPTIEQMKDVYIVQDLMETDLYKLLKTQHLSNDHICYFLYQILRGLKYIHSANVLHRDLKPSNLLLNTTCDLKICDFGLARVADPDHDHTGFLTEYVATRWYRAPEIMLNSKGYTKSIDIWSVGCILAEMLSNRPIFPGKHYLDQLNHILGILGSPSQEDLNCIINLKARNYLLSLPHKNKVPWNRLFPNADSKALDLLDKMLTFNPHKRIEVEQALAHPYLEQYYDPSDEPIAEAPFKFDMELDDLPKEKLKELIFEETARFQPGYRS

[6] = molecular target: Glycogen synthase kinase-3 (Homo sapiens, UniProt P49840+P49841); experiment: Inhibition of GSKp1; type: protein assay
[7] = molecular target: Tyrosine-protein kinase Fyn (Homo sapiens, UniProt P06241); experiment: Inhibition of FYN
Chain of Tyrosine-protein kinase Fyn (P06241 whole entry): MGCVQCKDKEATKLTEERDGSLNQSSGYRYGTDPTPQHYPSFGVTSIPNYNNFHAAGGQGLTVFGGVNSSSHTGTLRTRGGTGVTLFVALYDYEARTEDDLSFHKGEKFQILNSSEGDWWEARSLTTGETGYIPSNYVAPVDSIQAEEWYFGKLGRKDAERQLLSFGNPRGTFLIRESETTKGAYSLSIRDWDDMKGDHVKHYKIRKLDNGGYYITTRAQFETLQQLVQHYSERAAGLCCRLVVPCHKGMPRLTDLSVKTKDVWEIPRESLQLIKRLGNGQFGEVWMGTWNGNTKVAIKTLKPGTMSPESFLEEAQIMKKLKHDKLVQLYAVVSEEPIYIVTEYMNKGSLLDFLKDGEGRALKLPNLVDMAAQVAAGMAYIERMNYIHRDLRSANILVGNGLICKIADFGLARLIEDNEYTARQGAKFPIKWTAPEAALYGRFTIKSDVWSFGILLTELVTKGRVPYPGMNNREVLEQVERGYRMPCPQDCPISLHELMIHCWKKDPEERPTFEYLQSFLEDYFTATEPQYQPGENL

Ephrin type-B receptor 3 = molecular target: T1, Ephrin type-B receptor 3 (Homo sapiens, UniProt P54753); experiment: Inhibition of EPHB3
T1 sequence (P54753 whole entry): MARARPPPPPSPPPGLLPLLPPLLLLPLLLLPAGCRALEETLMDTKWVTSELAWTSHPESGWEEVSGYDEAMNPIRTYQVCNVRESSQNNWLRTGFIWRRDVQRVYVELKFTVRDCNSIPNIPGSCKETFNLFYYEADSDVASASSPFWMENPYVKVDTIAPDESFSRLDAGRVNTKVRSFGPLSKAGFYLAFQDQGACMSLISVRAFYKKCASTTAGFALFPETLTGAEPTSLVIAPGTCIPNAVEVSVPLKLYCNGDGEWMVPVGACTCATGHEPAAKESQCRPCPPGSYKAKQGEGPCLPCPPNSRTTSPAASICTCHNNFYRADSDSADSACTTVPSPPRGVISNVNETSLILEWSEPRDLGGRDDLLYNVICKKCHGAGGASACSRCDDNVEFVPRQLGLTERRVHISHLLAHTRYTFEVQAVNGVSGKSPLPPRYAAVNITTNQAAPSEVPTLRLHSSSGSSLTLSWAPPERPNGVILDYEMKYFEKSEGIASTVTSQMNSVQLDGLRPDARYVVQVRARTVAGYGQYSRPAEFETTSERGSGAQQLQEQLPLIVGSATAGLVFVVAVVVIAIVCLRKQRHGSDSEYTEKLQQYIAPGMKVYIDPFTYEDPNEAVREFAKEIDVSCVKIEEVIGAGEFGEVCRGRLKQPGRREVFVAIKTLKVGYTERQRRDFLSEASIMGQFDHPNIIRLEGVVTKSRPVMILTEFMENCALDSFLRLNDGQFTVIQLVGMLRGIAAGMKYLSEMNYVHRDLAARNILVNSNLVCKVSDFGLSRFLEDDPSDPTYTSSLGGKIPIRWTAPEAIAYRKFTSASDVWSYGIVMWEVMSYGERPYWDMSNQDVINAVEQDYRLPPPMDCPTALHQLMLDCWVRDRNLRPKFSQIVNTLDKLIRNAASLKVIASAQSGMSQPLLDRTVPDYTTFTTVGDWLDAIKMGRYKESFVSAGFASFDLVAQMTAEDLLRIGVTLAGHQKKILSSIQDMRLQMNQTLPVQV

SJSA-1 = experiment: Antiproliferative activity against human SJSA1 cells; type: functional, cell-based
[8] = molecular target: Cyclin-dependent kinase 2 (Homo sapiens, UniProt P24941); experiment: Inhibition of CDK2
[9] = molecular target: Cyclin-dependent kinase 4 (Homo sapiens, UniProt P11802); experiment: Inhibition of CDK4
Chain of Cyclin-dependent kinase 4 (P11802 whole entry): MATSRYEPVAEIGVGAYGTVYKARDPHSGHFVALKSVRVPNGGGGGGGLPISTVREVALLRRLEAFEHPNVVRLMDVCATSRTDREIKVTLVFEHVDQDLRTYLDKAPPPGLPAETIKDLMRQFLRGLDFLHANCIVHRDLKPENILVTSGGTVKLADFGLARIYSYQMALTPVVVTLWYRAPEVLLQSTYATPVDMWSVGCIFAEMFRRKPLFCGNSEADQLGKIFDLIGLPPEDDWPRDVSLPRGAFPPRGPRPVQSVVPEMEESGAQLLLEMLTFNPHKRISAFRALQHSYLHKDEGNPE

[10] = molecular target: Ribosomal protein S6 kinase alpha-3 (Homo sapiens, UniProt P51812)
Chain of Ribosomal protein S6 kinase alpha-3 (P51812 whole entry): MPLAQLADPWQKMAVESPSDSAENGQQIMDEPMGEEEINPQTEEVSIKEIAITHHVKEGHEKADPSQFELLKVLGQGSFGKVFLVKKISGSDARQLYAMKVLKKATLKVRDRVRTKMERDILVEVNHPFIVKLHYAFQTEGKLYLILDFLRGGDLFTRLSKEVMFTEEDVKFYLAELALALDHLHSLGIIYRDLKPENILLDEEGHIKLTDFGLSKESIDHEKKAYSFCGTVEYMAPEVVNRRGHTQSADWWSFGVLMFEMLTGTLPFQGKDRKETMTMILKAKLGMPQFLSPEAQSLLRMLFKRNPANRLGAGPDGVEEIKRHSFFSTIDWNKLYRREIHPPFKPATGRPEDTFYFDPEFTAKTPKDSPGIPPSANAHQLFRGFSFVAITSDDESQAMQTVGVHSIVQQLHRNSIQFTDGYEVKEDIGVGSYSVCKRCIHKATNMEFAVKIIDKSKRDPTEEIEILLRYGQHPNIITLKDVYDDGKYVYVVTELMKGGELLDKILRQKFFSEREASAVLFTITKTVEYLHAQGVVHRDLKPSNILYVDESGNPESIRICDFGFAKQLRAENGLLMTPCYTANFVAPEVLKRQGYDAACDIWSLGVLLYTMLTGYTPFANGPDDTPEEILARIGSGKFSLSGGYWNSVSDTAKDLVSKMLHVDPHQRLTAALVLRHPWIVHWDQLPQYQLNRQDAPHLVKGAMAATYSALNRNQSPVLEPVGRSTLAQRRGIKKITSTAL

Chain of Protein kinase C delta type (Q05655 whole entry): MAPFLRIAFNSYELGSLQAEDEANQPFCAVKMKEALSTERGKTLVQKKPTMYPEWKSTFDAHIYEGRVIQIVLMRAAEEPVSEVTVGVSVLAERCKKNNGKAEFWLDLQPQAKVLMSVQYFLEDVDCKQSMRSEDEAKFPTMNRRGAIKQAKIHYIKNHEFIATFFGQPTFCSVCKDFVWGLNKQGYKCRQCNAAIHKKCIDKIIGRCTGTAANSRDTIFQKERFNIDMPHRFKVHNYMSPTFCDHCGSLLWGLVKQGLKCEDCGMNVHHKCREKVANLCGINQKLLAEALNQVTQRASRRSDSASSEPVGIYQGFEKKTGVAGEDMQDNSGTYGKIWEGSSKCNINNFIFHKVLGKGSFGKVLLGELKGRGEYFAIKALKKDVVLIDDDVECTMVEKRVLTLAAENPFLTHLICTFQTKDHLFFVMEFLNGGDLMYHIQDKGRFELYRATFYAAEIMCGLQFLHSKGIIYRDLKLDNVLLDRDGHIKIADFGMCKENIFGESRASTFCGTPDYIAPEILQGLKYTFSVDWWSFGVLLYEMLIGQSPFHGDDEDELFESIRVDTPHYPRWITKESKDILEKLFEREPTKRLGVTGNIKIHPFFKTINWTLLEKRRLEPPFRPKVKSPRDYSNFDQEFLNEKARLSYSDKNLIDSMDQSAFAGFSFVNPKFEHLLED

| Ki [1] [nM] | SMILES | also measured |
| --- | --- | --- |
| 2000 | O=C1N=C(N[C@H](CO)Cc2ccccc2)S/C1=C\c1ccc2ncccc2c1 |  |
| 410 | O=C1N=C(NCCc2ccc(Cl)cc2)S/C1=C\c1ccc2ncccc2c1 |  |
| 280 | O=C1N=C(NCCc2ccccn2)S/C1=C\c1ccc2ncccc2c1 |  |
| 150 | O=C1N=C(NCc2ccccc2)S/C1=C\c1ccc2ncccc2c1 |  |
| 46 | O=C1N=C(NCCc2ccccc2Cl)S/C1=C\c1ccc2ncccc2c1 |  |
| > 2000 | CN(Cc1cccs1)C1=NC(=O)/C(=C/c2ccc3ncccc3c2)S1 |  |
| > 2000 | COC[C@H](NC1=NC(=O)/C(=C/c2ccc3ncccc3c2)S1)c1ccccc1 |  |
| 580 | O=C1N=C(N[C@H](CO)c2ccccc2)S/C1=C\c1ccc2ncccc2c1 |  |
| 230 | O=C1N=C(N[C@@H](CO)Cc2ccccc2)S/C1=C\c1ccc2ncccc2c1 | IC50 (SJSA-1): 3240 nM |
| 45 | O=C1N=C(NCCc2cccs2)S/C1=C\c1ccc2ncccc2c1 |  |
| 1040 | O=C1N=C(NCc2c(Cl)cccc2Cl)S/C1=C\c1ccc2ncccc2c1 |  |
| 63 | COc1ccccc1CCNC1=NC(=O)/C(=C/c2ccc3ncccc3c2)S1 |  |
| 62 | O=C1N=C(NCCc2ccc(F)cc2)S/C1=C\c1ccc2ncccc2c1 |  |
| 390 | COc1ccc(CCNC2=NC(=O)/C(=C/c3ccc4ncccc4c3)S2)cc1 |  |

Continued, molecule first:

| SMILES | Ki [1] [nM] | also measured |
| --- | --- | --- |
| CCCCNC1=NC(=O)/C(=C/c2ccc3ncccc3c2)S1 | 310 |  |
| O=C1N=C(NCCc2ccccc2F)S/C1=C\c1ccc2ncccc2c1 | 120 |  |
| O=C1N=C(NCCCc2ccccc2)S/C1=C\c1ccc2ncccc2c1 | 240 |  |
| O=C1N=C(NCCc2ccccc2)S/C1=C\c1ccc2ncccc2c1 | 60 |  |
| CNC1=NC(=O)/C(=C/c2ccc3ncccc3c2)S1 | 270 |  |
| COc1ccccc1CNC1=NC(=O)/C(=C/c2ccc3ncccc3c2)S1 | 86 |  |
| O=C1N=C(NCc2ccccn2)S/C1=C\c1ccc2ncccc2c1 | 310 |  |
| O=C1N=C(N[C@@H](CO)c2ccccc2)S/C1=C\c1ccc2ncccc2c1 | 350 |  |
| Cc1ccsc1CNC1=NC(=O)/C(=C/c2ccc3ncccc3c2)S1 | 89 |  |
| O=C1N=C(NCc2cccs2)S/C1=C\c1ccc2ncccc2c1 |  | Ki [2]: > 2000 nM; Ki [3]: > 2000 nM; Ki [4]: 320 nM; Ki [5]: 2000 nM; Ki [6]: 500 nM; Ki [7]: > 2000 nM; Ki (Ephrin type-B receptor 3): > 2000 nM; IC50 (SJSA-1): 4550 nM |
| O=C1N=C(NCCc2cccc(Cl)c2)S/C1=C\c1ccc2ncccc2c1 | 130 |  |
| O=C1N=C(NCc2ccccc2Cl)S/C1=C\c1ccc2ncccc2c1 | 52 |  |
| CONC1=NC(=O)/C(=C/c2ccc3ncccc3c2)S1 | > 2000 |  |
| O=C1N=C(NCCc2cccc(F)c2)S/C1=C\c1ccc2ncccc2c1 | 60 |  |
| NC1=NC(=O)/C(=C/c2ccc3ncccc3c2)S1 | 80 | Ki [8]: 2000 nM; Ki [9]: > 2000 nM; Ki [2]: > 2000 nM; Ki [3]: > 2000 nM; Ki [4]: 1700 nM; Ki [5]: > 2000 nM; Ki [6]: > 2000 nM; Ki [7]: > 2000 nM; Ki (Ephrin type-B receptor 3): > 2000 nM; Ki [10]: > 2000 nM |
| O=C1N=C(NCC(CO)c2ccccc2)S/C1=C\c1ccc2ncccc2c1 (stereo not given) | 390 |  |
| O=C1N=C(N[C@@H]2C[C@H]2c2ccccc2)S/C1=C\c1ccc2ncccc2c1 | 23 | Ki [8]: > 2000 nM; Ki [9]: > 2000 nM; Ki [2]: > 2000 nM; Ki [3]: > 2000 nM; Ki [4]: 480 nM; Ki [5]: 220 nM; Ki [6]: > 2000 nM; Ki [7]: > 2000 nM; Ki (Ephrin type-B receptor 3): > 2000 nM; IC50 (SJSA-1): 1850 nM; Ki [10]: > 2000 nM |
| O=C1N=C(NC2CC2)S/C1=C\c1ccc2ncccc2c1 | 270 |  |
| O=C1N=C(Nc2ccccc2)S/C1=C\c1ccc2ncccc2c1 | > 2000 |  |
| O=C1N=C(NCCc2ccc(Br)cc2)S/C1=C\c1ccc2ncccc2c1 | 640 |  |
| O=C1N=C(NCc2ccccc2Br)S/C1=C\c1ccc2ncccc2c1 | 38 |  |
| CCOc1ccccc1CCNC1=NC(=O)/C(=C/c2ccc3ncccc3c2)S1 | 87 |  |
